Experimental data from PubChem BioAssay (NCI).
“And” between values parts separate entries of the source, which are not always exact repeats. Equal values may be shown once.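 Step 1: Grow cells in 96-well plates. Step 2: Expose to compound for 48 hours at 5 concentrations. Step 3: Interpolate endpoints linearly; if unreached, use highest concentration. The concentration for 50% growth inhibition is given as GI50. TGI denotes the concentration required for complete inhibition of growth.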

Key:
Test in all cases: NCI tumour cell line growth inhibition, 48 h
OVCAR-5 ovarian = tested on: OVCAR-5 ovarian
SNB-75 CNS = tested on: SNB-75 CNS
UACC-257 melanoma = tested on: UACC-257 melanoma
HT29 colon = tested on: HT29 colon
EKVX NSCLC = tested on: EKVX NSCLC
LOX IMVI melanoma = tested on: LOX IMVI melanoma
IGROV1 ovarian = tested on: IGROV1 ovarian
M14 melanoma = tested on: M14 melanoma
NCI-H226 lung = tested on: NCI-H226 lung
SK-MEL-5 melanoma = tested on: SK-MEL-5 melanoma

SMILES	GI50 (OVCAR-5 ovarian)	TGI (OVCAR-5 ovarian)	TGI (SNB-75 CNS)	TGI (UACC-257 melanoma)	TGI (HT29 colon)	TGI (EKVX NSCLC)	TGI (LOX IMVI melanoma)	TGI (IGROV1 ovarian)	TGI (M14 melanoma)	TGI (NCI-H226 lung)	TGI (SK-MEL-5 melanoma)	GI50 (UACC-257 melanoma)	GI50 (HT29 colon)	GI50 (EKVX NSCLC)	GI50 (IGROV1 ovarian)	GI50 (M14 melanoma)	GI50 (SK-MEL-5 melanoma)	GI50 (SNB-75 CNS)	GI50 (LOX IMVI melanoma)	GI50 (NCI-H226 lung)
NCC(=O)OCN1C(=O)C2C3C=CC(C2C1=O)C1C2C(=O)N(COC(=O)CN)C(=O)C2C31 (configuration not stated)	42.1 µM and 90 µM	> 100 µM	62.6 µM and > 100 µM	> 100 µM and 77.6 µM	> 100 µM	> 100 µM	37.9 µM	> 100 µM	35.3 µM and 33.9 µM	> 100 µM	51.7 µM and 34 µM									
COc1cc2c(cc1OCCN1C(=O)c3cccc4cccc(c34)C1=O)N=C[C@@H]1CCCN1C2=O	23.9 µM	18.1 µM and 49.9 µM	45 µM	19 µM and 35.8 µM	16.9 µM and 29.8 µM	18.3 µM and 26.7 µM	12.3 µM	11.6 µM and 25.6 µM	15.7 µM and 70.6 µM	32.4 µM	15.5 µM and 28.2 µM	18 µM	14.4 µM	13.8 µM	12.4 µM	22.5 µM	13.1 µM			
COc1cc([N+](=O)[O-])c(S(=O)(=O)O)cc1-n1nc(-c2ccccc2)n[n+]1-c1cc(S(=O)(=O)[O-])c([N+](=O)[O-])cc1OC		> 100 µM	> 100 µM	> 100 µM	> 100 µM	> 100 µM	> 100 µM	> 100 µM	> 100 µM	> 100 µM	> 100 µM									
COc1ncnc2c1ncn2C/C(Br)=C(\Br)CCl	3.83 µM	15.2 µM	8.57 µM	3.9 µM	3.71 µM	29.9 µM	9.61 µM	4.86 µM	4.14 µM	9.38 µM	5.59 µM	0.775 µM	1.63 µM	16.3 µM	1.77 µM	1.82 µM	2.19 µM	2.01 µM	2.79 µM	2.82 µM
CNC1=C(Br)C(=O)C2=C(C1=O)C1C3=C(C(=O)C=CC3=O)C2c2ccccc21 (configuration not stated)	6.96 µM	31.4 µM	24.5 µM	> 100 µM	> 100 µM	3.7 µM	4.42 µM	18 µM	11.5 µM	14.4 µM	18.6 µM	12.7 µM	2.72 µM	1.94 µM	4.69 µM	1.98 µM	5.52 µM	3.88 µM	1.74 µM	5.19 µM
COc1ccc(-n2nc(C)c3c(Nc4ccc(NC(=O)Nc5cc(C(F)(F)F)ccc5F)cc4)ncnc32)cc1	2.87 µM	10.6 µM	7.84 µM	4.42 µM	5.8 µM	5.88 µM	3.1 µM	11.1 µM	4.64 µM	7.23 µM	3.73 µM	1.99 µM	2.31 µM	2.25 µM	2.98 µM	1.9 µM	1.91 µM	1.21 µM	1.67 µM	2.34 µM
O=C(O)C1(C(=O)O)CCN(S(=O)(=O)c2ccccc2)CC1		> 100 µM	> 100 µM	> 100 µM	> 100 µM	> 100 µM	> 100 µM	> 100 µM	> 100 µM	> 100 µM	> 100 µM									
COc1ccc(-c2ccc(=O)oc2-c2cc(OC)c(OC)c(OC)c2)cc1O		> 100 µM	> 100 µM	> 100 µM		> 100 µM	> 100 µM		> 100 µM	> 100 µM	3.45 µM	0.099 µM	0.663 µM	0.0807 µM	< 0.01 µM	0.018 µM	< 0.01 µM	0.0389 µM	0.051 µM	0.199 µM
O=C(O)c1cc2c3c(c1)[C@H]1C=CC[C@H]1CN3CC1CC=CC21 (some centres not stated)		> 100 µM	> 100 µM	> 100 µM	> 100 µM	> 100 µM	> 100 µM	> 100 µM	> 100 µM	> 100 µM	> 100 µM									
c1ccc(CN2CCC3(CC2)ONC2=NCCN23)cc1	40.8 µM	> 100 µM	> 100 µM	> 100 µM	> 100 µM	> 100 µM	55.5 µM	> 100 µM	> 100 µM	> 100 µM	> 100 µM	> 100 µM	61.4 µM	> 100 µM	35.8 µM	> 100 µM	72 µM	> 100 µM	21.7 µM	86.8 µM
CCCCCCCCOC(=O)c1cc(O)c(O)c(O)c1	12.5 µM	52.9 µM	37.6 µM	45.4 µM	47.6 µM	22.4 µM	10.6 µM	4.88 µM	9.19 µM	29 µM	11.6 µM	6.4 µM	14.8 µM	4.65 µM	0.913 µM	2.15 µM	3.26 µM	2.71 µM	1.33 µM	8.51 µM
CCCCCCCCCCSS(=O)(=O)c1ccc(C)cc1		30.6 µM	5.22 µM	19.8 µM	23.9 µM	27 µM	15.7 µM	33.7 µM	25 µM	37.3 µM	17.2 µM									
CCOc1ccccc1N=C(NC(=O)CC)SC		> 10 µM	> 100 µM	> 100 µM	> 100 µM	> 100 µM	> 100 µM	> 100 µM	> 100 µM	> 100 µM	> 10 µM	> 100 µM	> 100 µM	> 100 µM	> 100 µM	> 100 µM		> 10 µM	> 100 µM	> 100 µM
C/C(=C\c1ccccc1)C(O)S(=O)(=O)O (configuration not stated)		> 100 µM	> 100 µM	> 100 µM	> 100 µM	> 100 µM	> 100 µM	> 100 µM	> 100 µM	> 100 µM	> 100 µM									
CCCCCCCCCCCCCCCC[N+](C)(C)C	0.196 µM and 1.23 µM	0.61 µM and 4.06 µM	0.396 µM and 3.72 µM	0.942 µM and 6.33 µM	1.03 µM and 1.97 µM	3.17 µM and 4.28 µM	0.332 µM and 3.07 µM	0.359 µM	2.86 µM	3.07 µM	2.95 µM	0.266 µM and 2.46 µM	0.0658 µM and 0.516 µM	0.577 µM and 1.59 µM	0.154 µM	1.17 µM	1.56 µM	0.142 µM and 1.36 µM		1.13 µM
CC(C)c1cccc2sc(NC(=O)C(=O)CC(=O)c3ccc(F)cc3)nc12		> 100 µM	> 100 µM	> 100 µM	> 100 µM	> 100 µM	> 100 µM	> 100 µM	> 100 µM	> 100 µM	> 100 µM									
